Source: US7648966B2, “Mannose-6-phosphonate compounds for the treatment of inflammatory diseases” (Pharmaxis Pty Limited, priority 2003, dated 2010)

Experiments:
[1] = tested on: 51Cr-labeled T lymphocyte migration into the spleen; experiment: Inhibition of lymphocyte migration into lymphoid tissue (spleen) in vivo; design: species or system Balb/c mice; conditions: 5 mg per mouse iv with labeled cells; spleens removed 1.5 hours after injection; vs negative controls
Method: Lymphocytes were obtained from spleens of 6-8 week old female specific pathogen-free Balb/c mice (19-21 g). Single cell suspensions prepared by conventional means (pushing through a stainless steel screen). Red blood cells were lysed by treating with a solution of bicarbonate buffered ammonium chloride-EDTA (pH 7.3) and the preparation strained through a Falcon 2350 cell strainer. All cell preparative steps were performed on ice. Cell were suspended in a conventional lymphocyte culture medium (DMEM plus glucose, folic acid, L-asparagine, sodium bicarbonate, L-glutamine, sodium pyruvate, HEPES, 2-mercaptoethanol, penicillin, streptomycin, neomycin, and 2% FCS).
B lymphocytes were depleted by suspending the cells in purified rat anti-mouse CD45/B220 antibody (RA3-6B2 clone; PharMingen, USA) at a concentration of 4×10^7 cells/ml and incubated on ice for 20 minutes. An equal volume of culture medium (as above) was added and the cells centrifuged (200×g) and resuspended at a concentration of 10^7 cells/ml in BioMag goat ant-rat IgG (H&L) (“GARIG”) conjugated to magnetic beads (Bio Mag; Perseptive Diagnostics, Polysciences, Inc., USA). Following a 20 minute incubation on ice, with agitation every 5 minutes, cells binding to the GARIG/anti-CD45/B220 antibody complex were removed using magnetic separation (Dynal MPC-6, Dynal, USA). This procedure was repeated 4 times, resulting in a cell population containing approximately 80-90% T lymphocytes (determined by FACS analysis).
The cells were then washed in Hanks balanced salt solution (HBSS), resuspended in 5 ml of HBSS, and radiolabeled with ^51Cr for 30 minutes at 37° C. (as described above). The labeled cells were washed in PBS, centrifuged (200×g), and a portion were resuspended at a concentration of 3×10^7 cells/ml in either PBS (negative control) or PBS containing phenyl mannoside 6-phosphate (25 mg/ml in PBS; positive control) or PBS containing the test compound (25 mg/ml), and stored on ice. Cell viability was confirmed throughout the procedures by trypan blue exclusion. Balb/c mice were injected intravenously (iv) into the lateral tail vein with 0.2 ml containing 6×10^6 labeled lymphocytes and 0.2 ml of either PBS (negative control), 5 mg positive control or 5 mg test compound. All groups of mice were weight matched (±0.5 g).
Spleens from recipient mice were removed 1.5 hours after injection, and the cell-associated radioactivity was determined using a gamma counter (as above). Results of inhibition of lymphocyte migration into the spleen were expressed as a percentage reduction in the CPM of the spleens from treated animals compared with negative controls.
The phosphono-mannoside compounds of the present invention and their relative inhibition of lymphocyte migration in vivo (compared to negative controls) are presented in Table 2.

[2] = tested on: picryl chloride-sensitized T lymphocyte migration into the right ear pinna; experiment: Inhibition of T lymphocyte migration into extralymphatic tissue (picryl chloride-painted ear pinna) in vivo; design: species or system Balb/c mice; conditions: 5 mg/mouse IV; 9-10 hours after cell infusion
Description: The foregoing methods are recognized and well understood by those skilled in the art and the underlying principles can be found in any immunology textbook such as those cited above. Here donor animals are sensitized to a self protein (in practice, skin is the easiest tissue to use) by chemically modifying the protein(s) in this tissue thereby allowing the chemical moiety to be ‘seen’ as ‘foreign’ tissue by the immune system. This is done by reacting the skin (“painting”) with a ‘hapten’ which is usually an alkylating or arylating agent that reacts covalently with and thereby modifies protein(s) in the skin. Seven to ten days following sensitization, spleens or draining LNs are taken from the donor animals. […] Within a short time of cell transfer sensitized T cells begin to accumulate in the hapten-modified tissue, 8-24 hours later the tissue can be removed and the cell accumulation assessed. In the case of fluorescently-labeled cells, their accumulation is assessed histologically or histochemically, and in the case of radiolabeled cells, accumulation is assessed by counting radioactive decay in a suitable device. […]
B lymphocytes were depleted as described in Example 3. The enriched lymphocyte population contained approximately 85-90% T lymphocytes and <1% B cells (determined by FACS analysis). […]

SMILES: Cc1ccc(O[C@H]2O[C@H](CCP(=O)(O)O)[C@@H](O)[C@H](O)[C@@H]2O)c(C)c1
- % Inhibition of lymphocyte migration into spleens [1]: 82.4%
- Percent inhibition of T cell migration (right ear pinna) [2]: 56.1%
